ChEMBL document CHEMBL1130084, “Further definition of the D1 dopamine receptor pharmacophore: synthesis of trans-6,6a,7,8,9,13b-hexahydro-5H-benzo[d]naphth[2,1-b]azepines as rigid analogues of beta-phenyldopamine” (J Med Chem, 1997)

Legend:
[1] = biological target: D(1A) dopamine receptor (Rattus norvegicus) (UniProt P18901); experiment: The compound is evaluated for the affinity towards Dopamine receptor D1, using [3H]- SCH 23390 as ligand on rat striatal membranes.
[2] = biological target: D(2) dopamine receptor (Rattus norvegicus) (UniProt P61169); experiment: The compound is evaluated for the affinity towards Dopamine receptor D2, using [3H]-spiperone as ligand on rat striatal membranes.
Chain of D(2) dopamine receptor (Rattus norvegicus) (P61169 whole entry): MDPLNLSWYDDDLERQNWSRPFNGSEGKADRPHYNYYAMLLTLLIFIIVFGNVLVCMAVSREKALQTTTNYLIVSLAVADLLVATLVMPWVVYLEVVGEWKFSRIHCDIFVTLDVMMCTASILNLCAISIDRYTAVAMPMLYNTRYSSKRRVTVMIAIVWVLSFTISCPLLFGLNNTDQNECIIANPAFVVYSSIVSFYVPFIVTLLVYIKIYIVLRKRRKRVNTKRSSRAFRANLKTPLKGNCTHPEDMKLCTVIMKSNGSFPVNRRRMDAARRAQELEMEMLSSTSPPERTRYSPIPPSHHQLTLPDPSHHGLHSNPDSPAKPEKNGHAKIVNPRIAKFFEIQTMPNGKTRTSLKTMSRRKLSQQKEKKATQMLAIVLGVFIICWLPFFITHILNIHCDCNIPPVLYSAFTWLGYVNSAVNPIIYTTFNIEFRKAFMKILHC

Chain of D(1A) dopamine receptor (Rattus norvegicus) (P18901 whole entry): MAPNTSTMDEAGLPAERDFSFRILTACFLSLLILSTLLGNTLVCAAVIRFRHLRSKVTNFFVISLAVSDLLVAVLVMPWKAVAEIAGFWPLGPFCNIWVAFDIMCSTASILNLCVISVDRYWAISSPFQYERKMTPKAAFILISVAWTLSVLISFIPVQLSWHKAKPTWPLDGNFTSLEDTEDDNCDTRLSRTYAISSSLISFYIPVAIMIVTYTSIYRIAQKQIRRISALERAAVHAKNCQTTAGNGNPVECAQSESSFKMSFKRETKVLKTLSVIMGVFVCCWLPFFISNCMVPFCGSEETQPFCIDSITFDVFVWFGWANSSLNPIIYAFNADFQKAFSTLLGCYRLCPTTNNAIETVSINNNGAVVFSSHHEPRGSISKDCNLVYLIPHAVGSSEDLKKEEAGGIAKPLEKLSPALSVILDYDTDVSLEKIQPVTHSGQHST

| SMILES | K0.5 [1] [nM] | K0.5 [2] [nM] |
| --- | --- | --- |
| CN1Cc2ccccc2[C@@H]2c3cc(O)c(Br)cc3CC[C@H]21 | 322 | – |
| CN1CCc2ccccc2[C@@H]2c3cc(O)ccc3CC[C@H]21 | 3950 | > 10000 |
| Oc1cc2c(cc1O)[C@H]1c3ccccc3CCN[C@@H]1CC2 | 2850 | 2220 |
| CN1CCc2ccccc2[C@@H]2c3cc(O)c(I)cc3CC[C@H]21 | 1380 | 2960 |
| Oc1cc2c(cc1O)[C@H]1c3ccccc3CN[C@@H]1CC2 | 2.8 | – |
